Source: US9393221B2, “Methods and compounds for reducing intracellular lipid storage” (THE GENERAL HOSPITAL CORPORATION, priority 2011, dated 2016)
Where a name gives a salt, the structure may show the parent alone.

These compounds were tested on ATGL-KO iPSCs (assay: High throughput iPSC chemical screening, Oil Red O (ORO) lipid accumulation). Conditions: glycolytic switch compounds.
Assay type: cell-based, mouse
Throughout, for Z-score: test concentration or dose not given here.

| Compound | Rank in normalized ORO score from screen |
| --- | --- |
| CC1=CC(=O)c2ccccc2C1=O [Menadione] | 517 |
| CSc1ccc2c(c1)C(N1CCN(C)CC1)Cc1ccccc1S2.O=C(O)/C=C\C(=O)O (centres unmarked) [Methiothepin maleate] | 658 |
| CN(C/C=C/c1ccccc1)Cc1cccc2ccccc12 [Naftifine hydrochloride] | 383 |

Same assay, conditions: normalized ORO level vs DMSO-treated cells; compound present during 7 days differentiation, 96-well; negative = decrease in lipid accumulation

| Compound | Z-score |
| --- | --- |
| CC12CC3CC(C)(C1)CC(N)(C3)C2 [Memantine Hydrochloride] | −1.2487 |
| CC1=CC(=O)c2ccccc2C1=O [Menadione] | −0.29 |
| C[N+]1(C)CCCC(OC(=O)C(O)(c2ccccc2)c2ccccc2)C1 (centres unmarked) [Mepenzolate bromide] | −0.115 |
| Cc1ccccc1OCC(O)CO (centres unmarked) [Mephenesin] | −0.9401 |
| CCC1(c2ccccc2)NC(=O)N(C)C1=O (centres unmarked) [Mephenytoin] | 0.8864 |
| CCCNC(C)(C)COC(=O)c1ccccc1 [Meprylcaine hydrochloride] | −0.9597 |
| CCC1(c2cccc(O)c2)CCCCN(C)C1 (centres unmarked) [Meptazinol hydrochloride] | −1.0631 |
| C[C@@H](O)[C@H]1C(=O)N2C(C(=O)O)=C(S[C@@H]3CN[C@H](C(=O)N(C)C)C3)[C@H](C)[C@H]12 [Meropenem] | 0.5806 |
| Nc1ccc(O)c(C(=O)O)c1 [Mesalamine] | −0.1803 |
| CN1CCCCC1CCN1c2ccccc2Sc2ccc([S+](C)[O-])cc21 (centres unmarked) [Mesoridazine besylate] | −0.5525 |
| C=N[C@@H](C(=O)N[C@@H]1C(=O)N2[C@@H]1SC(C)(C)[C@@H]2C(=O)O)c1ccccc1 [Metampicillin sodium salt] | 0.638 |
| CNCC(O)c1ccc(O)c(OC)c1.Cl (stereo not drawn) [Metanephrine hydrochloride DL] | −1.0419 |
| C[C@H](N)[C@H](O)c1cccc(O)c1 [Metaraminol bitartrate] | −0.9024 |
| CN1C[C@H](CNC(=O)OCc2ccccc2)C[C@@H]2c3cccc4c3c(cn4C)C[C@H]21 [Metergoline] | 0.5474 |
| CN(C)C(=N)N=C(N)N [Metformin hydrochloride] | 0.7664 |
| CC(=O)OC(C)C[N+](C)(C)C (centres unmarked) [Methacholine chloride] | −0.8044 |
| C=C1c2cccc(O)c2C(=O)C2=C(O)[C@]3(O)C(=O)C(C(N)=O)=C(O)[C@@H](N(C)C)[C@@H]3[C@@H](O)[C@H]12 [Methacycline hydrochloride] | 2.309 |
| CC[N+](C)(CC)CCOC(=O)C1c2ccccc2Oc2ccccc21 [Methantheline bromide] | −0.7033 |
| CN(C)CCN(Cc1cccs1)c1ccccn1 [Methapyrilene hydrochloride] | −0.1861 |
| CC(=O)/N=c1/sc(S(N)(=O)=O)nn1C [Methazolamide] | 0.06841 |
| COC(=O)Nc1nc2ccc(SC(C)C)cc2[nH]1 [Methiazole] | 19.8245 |
| Cn1cc[nH]c1=S [Methimazole] | 0.6934 |
| CS(=N)(=O)CC[C@H](N)C(=O)O (some centres unmarked) [Methionine sulfoximine (L)] | −0.2829 |
| CSc1ccc2c(c1)C(N1CCN(C)CC1)Cc1ccccc1S2.O=C(O)/C=C\C(=O)O (centres unmarked) [Methiothepin maleate] | 0.08061 |
| COc1ccccc1OCC(O)COC(N)=O (centres unmarked) [Methocarbamol] | −1.1429 |
| CN(Cc1cnc2nc(N)nc(N)c2n1)c1ccc(C(=O)N[C@@H](CCC(=O)O)C(=O)O)cc1 [Methotrexate] | 7.697 |
| COc1ccc2c(c1)N(C[C@H](C)CN(C)C)c1ccccc1S2.O=C(O)/C=C\C(=O)O [Methotrimeprazine maleat salt] | 1.548 |

| Compound | Z-score |
| --- | --- |
| COc1ccc(OC)c(C(O)C(C)N)c1 (centres unmarked) [Methoxamine hydrochloride] | 0.4239 |
| COc1ccc2[nH]c3c(c2c1)CCN=C3C [Methoxy-6-harmalan] | 1.201 |
| COc1c2occc2cc2ccc(=O)oc12 [Methoxy-8-psoralen] | 1.942 |
| Cc1cc(C(C)(C)CC(C)(C)C)ccc1OCCOCC[N+](C)(C)Cc1ccccc1.[Cl-] [Methyl benzethonium chloride] | 12.6356 |
| C[N+]1(C)[C@@H]2CC[C@H]1C[C@@H](OC(=O)C(CO)c1ccccc1)C2 (some centres unmarked) [Methylatropine nitrate] | −1.1494 |
| C[C@](N)(Cc1ccc(O)c(O)c1)C(=O)O [Methyldopa (L,−)] | 0.02395 |
| CCOC(=O)[C@@](C)(N)Cc1ccc(O)c(O)c1 [Methyldopate hydrochloride] | 0.5054 |
| CC[C@@H](CO)NC(=O)[C@@H]1C=C2c3cccc4[nH]cc(c34)C[C@H]2N(C)C1 [Methylergometrine maleate] | 0.02492 |
| C[C@H]1NC(=O)NC1=O [Methylhydantoin-5-(D)] | −0.6204 |
| C[C@@H]1NC(=O)NC1=O [Methylhydantoin-5-(L)] | −0.97 |
| C[C@H]1C[C@@H]2[C@H]([C@@H](O)C[C@@]3(C)[C@H]2CC[C@]3(O)C(=O)CO)[C@@]2(C)C=CC(=O)C=C12 [Methylprednisolone, 6-alpha] | −1.1745 |
| Cc1cc2c(cc1S(N)(=O)=O)S(=O)(=O)CCC2 [Meticrane] | −0.0455 |
| CN1CCCC(CC2c3ccccc3Sc3ccccc32)C1 (centres unmarked) [Metixene hydrochloride] | −0.8136 |
| CCN(CC)CCNC(=O)c1cc(Cl)c(N)cc1OC [Metoclopramide monohydrochloride] | −1.0824 |
| Cc1ccccc1N1C(=O)c2cc(S(N)(=O)=O)c(Cl)cc2NC1C (centres unmarked) [Metolazone] | −0.7452 |
| CC(=O)Nc1c(I)c(C(=O)N[C@H]2C(O)O[C@H](CO)[C@@H](O)[C@@H]2O)c(I)c(N(C)C(C)=O)c1I (some centres unmarked) [Metrizamide] | 1.8943 |
| Cc1ncc([N+](=O)[O-])n1CCO [Metronidazole] | 0.716 |
| CC(C)(C(=O)c1cccnc1)c1cccnc1 [Metyrapone] | −1.7744 |
| C[C@@]1(O)CCOC(=O)C1 [Mevalonic-D, L acid lactone] | −1.4333 |
| Cc1cccc(C)c1OCC(C)N (centres unmarked) [Mexiletine hydrochloride] | 1.054 |
| CN1CCN2c3ccccc3Cc3ccccc3C2C1 (centres unmarked) [Mianserine hydrochloride] | −1.3517 |
| Clc1ccc(COC(Cn2ccnc2)c2ccc(Cl)cc2Cl)c(Cl)c1 (centres unmarked) [Miconazole] | −0.018 |
| COc1ccc(OC)c(C(O)CNC(=O)CN)c1 (centres unmarked) [Midodrine hydrochloride] | −0.5001 |
| CC#C[C@]1(O)CC[C@H]2[C@@H]3CCC4=CC(=O)CCC4=C3[C@@H](c3ccc(N(C)C)cc3)C[C@@]21C [Mifepristone] | −0.6348 |
| Cc1[nH]c(=O)c(C#N)cc1-c1ccncc1 [Milrinone] | −0.2851 |
| NC(Cn1ccc(=O)c(O)c1)C(=O)O (centres unmarked) [Mimosine] | 0.9075 |
| Cc1cc(-c2ccccc2)nnc1NCCN1CCOCC1 [Minaprine dihydrochloride] | 0.429 |

| Compound | Z-score |
| --- | --- |
| CN(C)c1ccc(O)c2c1C[C@H]1C[C@H]3[C@H](N(C)C)C(O)=C(C(N)=O)C(=O)[C@@]3(O)C(O)=C1C2=O [Minocycline hydrochloride] | 5.776 |
| Nc1cc(N2CCCCC2)nc(N)[n+]1[O-] [Minoxidil] | 0.06676 |
| O=C1c2c(O)ccc(O)c2C(=O)c2c(NCCNCCO)ccc(NCCNCCO)c21 [Mitoxantrone dihydrochloride] | 45.2169 |
| CCc1c(C)[nH]c2c1C(=O)C(CN1CCOCC1)CC2 (centres unmarked) [Molindone hydrochloride] | 2.263 |
| CCOC(=O)[N-]c1cn(N2CCOCC2)n[o+]1 [Molsidomine] | 1.761 |
| C[C@@H]1C[C@H]2[C@@H]3CCC4=CC(=O)C=C[C@]4(C)[C@@]3(Cl)[C@@H](O)C[C@]2(C)[C@@]1(OC(=O)c1ccco1)C(=O)CCl [Mometasone furoate] | −0.7613 |
| CC[C@@]1([C@@H]2O[C@@H]([C@H]3O[C@@](O)(CO)[C@H](C)C[C@@H]3C)C[C@@H]2C)CC[C@H]([C@]2(C)CC[C@]3(C[C@H](O)[C@@H](C)[C@@H]([C@@H](C)[C@@H](OC)[C@H](C)C(=O)O)O3)O2)O1 [Monensin sodium salt] | 18.1768 |
| Oc1ccc(OCc2ccccc2)cc1 [Monobenzone] | −1.7289 |
| C[C@H]1C(=O)O[C@@H]2CCN3CC=C(COC(=O)[C@](C)(O)[C@]1(C)O)[C@H]23 [Monocrotaline] | −1.7819 |
| Cc1ccsc1/C=C/C1=NCCCN1C [Morantel tartrate] | 1.005 |
| CCOC(=O)Nc1ccc2c(c1)N(C(=O)CCN1CCOCC1)c1ccccc1S2 [Moricizine hydrochloride] | −0.1525 |
| Cl.N=C(N=C(N)N)N1CCOCC1 [Moroxidine hydrochloride] | 0.05075 |
| CO[C@@]1(NC(=O)C(C(=O)O)c2ccc(O)cc2)C(=O)N2C(C(=O)O)=C(CSc3nnnn3C)CO[C@@H]21 (some centres unmarked) [Moxalactam disodium salt] | −0.7608 |
| CC(=O)Oc1cc(C(C)C)c(OCCN(C)C)cc1C.Cl [Moxisylyte hydrochoride] | −0.4722 |
| COc1nc(C)nc(Cl)c1N=C1NCCN1 [Moxonidine] | −0.6893 |
| COc1c(C)c2c(c(O)c1C/C=C(\C)CCC(=O)O)C(=O)OC2 [Mycophenolic acid] | 36.1922 |
| c1cncc(C2=NCCC2)c1 [Myosmine] | 0.265 |
| O=c1c(O)c(-c2cc(O)c(O)c(O)c2)oc2cc(O)cc(O)c12 [Myricetin] | 27.33 |
| CNc1ncnc2c1ncn2[C@@H]1O[C@H](CO)[C@@H](O)[C@H]1O [N6-methyladenosine] | −0.5287 |
| CC(=O)N[C@@H](CC(C)C)C(=O)O [N-Acetyl-L-leucine] | −1.2512 |
| COc1ccc2cc(CCC(C)=O)ccc2c1 [Nabumetone] | −0.6754 |
| NC(=O)c1ccc[n+]([C@@H]2O[C@H](COP(=O)([O-])OP(=O)(O)OC[C@H]3O[C@@H](n4cnc5c(N)ncnc54)[C@H](O)[C@@H]3O)[C@@H](O)[C@H]2O)c1 [Nadide] | 0.1385 |
| CC(C)(C)NCC(O)COc1cccc2c1CC(O)C(O)C2 (centres unmarked) [Nadolol] | −1.7201 |
| CCOc1ccc2ccccc2c1C(=O)N[C@@H]1C(=O)N2[C@@H]1SC(C)(C)[C@@H]2C(=O)O [Nafcillin sodium salt monohydrate] | −0.1498 |
| CCN(CC)CCOC(=O)C(Cc1cccc2ccccc12)CC1CCCO1 (centres unmarked) [Nafronyl oxalate] | 0.6546 |
| CN(C/C=C/c1ccccc1)Cc1cccc2ccccc12 [Naftifine hydrochloride] | −0.6354 |
